What is called solubility is how much of the substance goes into solution per volume. Higher therefore signals a readily soluble substance.

This is an account of results in patent US6867192B1, “Compounds useful in the treatment of inflammatory diseases” (priority 1998, dated 2005).

This series can be described thus: Solubility in water. The class given is physicochemical.

`Cc1ccccc1OCC(=O)N[C@@H](CC(C)C)C(=O)N[C@@H](Cc1ccc(OC(=O)N2CCC(C(N)=O)CC2)cc1)C(=O)[O-].[K+]` [Example 27A, (2S)-3-[4-({[4-(Aminocarbonyl)-1-piperidinyl]carbonyl}oxy)phenyl]-2-[((2S)-4-methyl-2-{[2-(2-methylphenoxy)acetyl]amino}pentanoyl)amino]propanoic acid potassium salt] gave a solubility of over 250 mg/mL.
